The test relates to atrial peptide-degrading enzyme (ADE). As to the kind of experiment: Inhibition of ADE activity (AcAPI production from 50 μM AcAPII, HPLC). The class given is biochemical, bovine. On the procedure:
The concentration of enzyme and AcAPII were chosen so that approximately 80% of the AcAPII was degraded in the absence of inhibitor. The production of AcAPI was determined by integration of the AcI peak, and percent inhibition by the inhibitors was calculated.
(e.) Enzyme Inhibitor Testing: To further characterize ADE, the extent of inhibition by several known peptidase inhibitors was determined.

The mark [1] stands for this setting: inhibitor 0.1 mM, 50 μM AcAPII, 1 hour, 37° C.
The mark [2] stands for this setting: inhibitor 5 mM, 50 μM AcAPII, 1 hour, 37° C.
Setting [3] is: inhibitor 1 mM, 50 μM AcAPII, 1 hour, 37° C.

Where two headings read alike, the source gives them in different places. *1 amine or outer side, *2 acyl side, *3 side chain or, on linkers, in order; H or OH if unused. Where a SMILES comes first, the peptide text is derived from it. [ ]: non-standard residue; d: D form. The star is where a group is joined. Sta = CC(C)C[C@H](N)[C@@H](O)CC(=O)O; Isovaleryl = CC(C)CC(=O)*; CO = O=C([*:1])[*:2]

For the compound `CC(C)C[C@H](NC(=O)[C@H]1O[C@@H]1C(=O)O)C(=O)NCCCCN=C(N)N` (relative stereo) [E64, trans-Epoxysuccinyl-L-leucylamido-(4-guanidino)butane], the “Percent Inhibition of ADE” value under setting [1] turned out to be 0%.

Regarding `CC(C)C[C@H](NC(=O)[C@@H](N)CO)C(=O)N[C@@H](CCCNC(=N)N)C(=O)N[C@@H](CCCNC(=N)N)C(=O)N[C@@H](CO)C(=O)N[C@@H](CO)C(=O)N[C@H](C)C(=O)NCC(=O)N[C@H](C)C(=O)N[C@@H](CC(N)=O)C(=O)N[C@@H](CS)C(=O)N[C@@H](Cc1ccccc1)C(=O)N[C@@H](CCCNC(=N)N)C(=O)N[C@@H](Cc1ccc(O)cc1)C(N)=O` [(IV), Ser-Leu-Arg-Arg-Ser-Ser-DAla-Gly-DAla-Asn-Cys-Phe-Arg-Tyr-NH2] (H-SLRRSS[dA]G[dA]NCFRY-NH2), for the setting “Table 10”, the IC50 is 32.5 µM and the “% Inhibition At 0.1 mM” value is on record as 68%.

Regarding `O=C(O)CN(CCN(CC(=O)O)CC(=O)O)CC(=O)O` [EDTA, Ethylenediamine tetraacetic acid], the “ADE activity after dialysis of the enzyme” value (enzyme dialyzed against 1 mM EDTA) is on record as “totally abolished”. Besides, the “Percent Inhibition of ADE” value under setting [2] amounted to 20%.

`c1cnc2c(c1)ccc1cccnc12` [1,10-Phenanthroline]: the “Inhibition of ADE, in words” value was “inhibited activity to a slightly lesser extent”. Further, the “Percent Inhibition of ADE” value under setting [3] is given as 72%.

As for `O=C(O)c1cc[c]([Hg][Cl])cc1` [p-Chloromercuribenzoate], the “Percent Inhibition of ADE” value under setting [3] was 95%.

Take `NC(=O)CI` [Iodoacetamide]: under setting [3], the “Percent Inhibition of ADE” value was 10%.

Turning to `C[C@H](CS)C(=O)N1CCC[C@H]1C(=O)O` [Captopril], the “Inhibition of ADE, in words” value was “slight inhibition”. For the same compound, the “Percent Inhibition of ADE” value (inhibitor 0.2 mM, 50 μM AcAPII, 1 hour, 37° C.) was found to be 33%.

Consider `CCN1C(=O)C=CC1=O` [NEM, N-ethylmaleimide], for which the “Inhibition of ADE, in words” value was “inhibited”. The “Percent Inhibition of ADE” value under setting [2] is listed as 97%. For the same compound, the “ADE activity inhibited by” value (text summary of Table 4) is listed as about 100%.

Regarding `O=S(=O)(F)Cc1ccccc1` [PMSF, Phenylmethylsulfonyl fluoride], the “Percent Inhibition of ADE” value under setting [3] stood at 8%.

As for `CC(C)C[C@H](NC(=O)[C@@H](N)CO)C(=O)N[C@@H](CCCNC(=N)N)C(=O)N[C@@H](CCCNC(=N)N)C(=O)N[C@@H](CO)C(=O)N[C@@H](CO)C(=O)N[C@H](C)C(=O)NCC(=O)N[C@H](C)C(=O)N[C@@H](CC(N)=O)C(=O)N[C@H](CO)C(=O)N[C@@H](Cc1ccccc1)C(=O)N[C@@H](CCCNC(=N)N)C(=O)N[C@@H](Cc1ccc(O)cc1)C(N)=O` [(III), Ser-Leu-Arg-Arg-Ser-Ser-DAla-Gly-DAla-Asn-DSer-Phe-Arg-Tyr-NH2] (H-SLRRSS[dA]G[dA]N[dS]FRY-NH2), for the setting “Table 10”, the “% Inhibition At 0.1 mM” value is 22%.

`CC(C)C[C@H](NC(=O)[C@@H](NC(=O)N[C@@H](Cc1ccccc1)C(=O)O)[C@@H]1CCN=C(N)N1)C(=O)N[C@H](C=O)Cc1ccccc1` [Chymostatin]: the “Percent Inhibition of ADE” value under setting [1] is on record as 8%.

As to `CC(C)C[C@H](NC(=O)[C@@H](N)CO)C(=O)N[C@@H](CCCNC(=N)N)C(=O)N[C@@H](CCCNC(=N)N)C(=O)N[C@@H](CO)C(=O)N[C@@H](CO)C(=O)N[C@H](C)C(=O)NCC(=O)N[C@H](C)C(=O)N[C@@H](CC(N)=O)C(=O)N[C@@H](CO)C(=O)N[C@@H](Cc1ccccc1)C(=O)N[C@@H](CCCNC(=N)N)C(=O)N[C@@H](Cc1ccc(O)cc1)C(N)=O` [(I), Ser-Leu-Arg-Arg-Ser-Ser-DAla-Gly-DAla-Asn-Ser-Phe-Arg-Tyr-NH2] (H-SLRRSS[dA]G[dA]NSFRY-NH2), for the setting “Table 10”, the “% Inhibition At 0.1 mM” value came out at 46%.

Regarding `CC(=O)N[C@@H](CC(C)C)C(=O)N[C@@H](CC(C)C)C(=O)N[C@H](C=O)CCCNC(=N)N` [Leupeptine], the “Inhibition of ADE, in words” value is recorded as “slight inhibition”. Moreover, the “Percent Inhibition of ADE” value under setting [1] was 33%.

With `CC(C)[C@H](NC(=O)[C@H](CCCNC(=N)N)NC(=O)N[C@@H](Cc1ccccc1)C(=O)O)C(=O)N[C@H](C=O)CCCNC(=N)N` [Antipain] ({Phe-CO}-Arg-Val-Arg-aldehyde), under setting [1], the “Percent Inhibition of ADE” value is listed as 0%.

Take `CC(C)C[C@H](NC(=O)N[C@H](C(=O)N[C@@H](CCC(N)=O)C(=O)N[C@@H](C)C=O)[C@@H]1CCNC(=N)N1)C(=O)O` [Elastinal]: the “Percent Inhibition of ADE” value under setting [1] is listed as 10%.

`CC(C)C[C@H](NP(=O)(O)O[C@@H]1O[C@@H](C)[C@H](O)[C@@H](O)[C@H]1O)C(=O)N[C@@H](Cc1c[nH]c2ccccc12)C(=O)O` [Phosphoramidon]: the “Inhibition of ADE, in words” value is “not inhibited”. The “Percent Inhibition of ADE” value (inhibitor 0.001 mM, 50 μM AcAPII, 1 hour, 37° C.) was determined as 0%.

For `O=S(=O)(O)c1cc[c]([Hg][OH])cc1` [Hydroxymercuriphenyl sulfonic acid], the “Percent Inhibition of ADE” value under setting [3] was determined as 100%.

Regarding `O=C(O)CI` [Iodoacetic acid], the “Percent Inhibition of ADE” value turned out to be 0.

Take `CC(C)CC(=O)N[C@H](C(=O)N[C@H](C(=O)N[C@@H](CC(C)C)[C@@H](O)CC(=O)N[C@@H](C)C(=O)N[C@@H](CC(C)C)[C@@H](O)CC(=O)O)C(C)C)C(C)C` [Pepstatin] (Isovaleryl-VV[Sta]A[Sta]-OH): the “Percent Inhibition of ADE” value (inhibitor 0.01 mM, 50 μM AcAPII, 1 hour, 37° C.) was determined as 0%.

Take `CC(C)C[C@H](NC(=O)[C@@H](N)CO)C(=O)N[C@@H](CCCNC(=N)N)C(=O)N[C@@H](CCCNC(=N)N)C(=O)N[C@@H](CO)C(=O)N[C@@H](CO)C(=O)N[C@H](C)C(=O)NCC(=O)N[C@H](C)C(=O)N[C@@H](CC(N)=O)C(=O)N[C@@H](CO)C(=O)N[C@H](Cc1ccccc1)C(=O)N[C@@H](CCCNC(=N)N)C(=O)N[C@@H](Cc1ccc(O)cc1)C(N)=O` [(II), Ser-Leu-Arg-Arg-Ser-Ser-DAla-Gly-DAla-Asn-Ser-DPhe-Arg-Tyr-NH2] (H-SLRRSS[dA]G[dA]NS[dF]RY-NH2): the “% Inhibition At 0.1 mM” value (Table 10) stood at 28%.

For `CC(C)C[C@H](NC(=O)[C@@H](N)CO)C(=O)N[C@@H](CCCNC(=N)N)C(=O)N[C@@H](CCCNC(=N)N)C(=O)N[C@@H](CO)C(=O)N[C@@H](CO)C(=O)N[C@H](C)C(=O)NCC(=O)N[C@H](C)C(=O)N[C@@H](CC(N)=O)C(=O)N[C@@H](CS)C(=O)N[C@H](Cc1ccccc1)C(=O)N[C@@H](CCCNC(=N)N)C(N)=O` [(VI), Ser-Leu-Arg-Arg-Ser-Ser-DAla-Gly-DAla-Asn-Cys-DPhe-Arg-NH2] (H-SLRRSS[dA]G[dA]NC[dF]R-NH2), the “% Inhibition At 0.1 mM” value (Table 10) came to 74%.

The term IC50 denotes the concentration needed to halve the response being measured. Higher therefore signals weaker potency.

Values taken from US5262521A (SRI International, priority 1991, dated 1993).
